From patent US12116343B2, “Inhibitors of APOL1 and methods of using same” (Vertex Pharmaceuticals Incorporated, priority 2020, dated 2024)
Read-outs that look alike come from different tables or passages of the source.

Target: T1, G1 APOL1 (Homo sapiens, UniProt O14791, I384M/S342G)
T1 construct: expressed in transfected cells
T1 sequence (O14791 28-398 S342G/I384M): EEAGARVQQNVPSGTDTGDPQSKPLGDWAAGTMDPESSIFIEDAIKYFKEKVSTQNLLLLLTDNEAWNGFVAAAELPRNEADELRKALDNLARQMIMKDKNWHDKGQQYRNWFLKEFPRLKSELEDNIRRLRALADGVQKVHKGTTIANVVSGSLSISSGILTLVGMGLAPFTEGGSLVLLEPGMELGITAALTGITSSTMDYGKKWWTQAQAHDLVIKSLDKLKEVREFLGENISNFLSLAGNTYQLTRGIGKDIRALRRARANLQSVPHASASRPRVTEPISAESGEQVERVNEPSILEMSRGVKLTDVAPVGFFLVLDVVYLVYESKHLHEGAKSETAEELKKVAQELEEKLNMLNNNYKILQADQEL
Assay: Acute APOL1 Thallium Assay with inducible stable clones of HEK 293 cells
Assay type: cell-based
Conditions: read-out: Thallium Assay (IC50)
In short: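 Readout: Tl+-triggered fluorescence, FLIPR, reflecting potassium flux through APOL1 pores after cells take up an AM-ester thallium indicator. Cells: HEK T-Rex stable clone G1 DC3.25, APOL1 G1 induced by tetracycline, seeded 26000 per well.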

[1] = HEK 293 T-Rex cells expressing G1 APOL1

| Structure (SMILES) | IC50 (Table 24, Compounds 287 to 465) | IC50 [1] |
| --- | --- | --- |
| CC(O)C(C)NC(=O)O[C@H]1C[C@H](c2c(-c3ccc(F)cc3)[nH]c3c(F)cc(F)cc32)C1 (mixture of isomers) [Compound 363] | > 1000 nM | – |
| NC(=O)CNC(=O)C1CC(c2c(-c3ccc(F)cc3)[nH]c3c(F)cc(C(F)(F)F)cc23)C1 (stereo not drawn) [Compound 280] | – | < 250 nM |
| O=C(NCC(O)C(F)F)C1CC(Cc2c(-c3ccc(F)cc3)[nH]c3c(F)cc(F)cc23)C1 (stereo not drawn) [Compound 301] | > 1000 nM | – |
| O=C([C@H]1C[C@H](c2c(-c3ccc(F)cc3)[nH]c3c(F)cc(F)cc32)C1)N1CCOC(CO)C1 (stereo partly drawn) [Compound 152] | – | > 1000 nM |
| CC(C)C(CO)NC(=O)[C@H]1C[C@@H](c2c(-c3ccc(F)cc3)[nH]c3c(F)cc(F)cc32)C1 (stereo partly drawn) [Compound 254] | – | > 1000 nM |
| O=C(NC(CO)(CO)CO)O[C@H]1C[C@H](c2c(-c3ccc(F)cc3)[nH]c3c(F)cc(F)cc32)C1 [Compound 349, (1r, 3r)-3-(5,7-difluoro-2-(4-fluorophenyl)-1H-indol-3-yl)cyclobutyl (1,3-dihydroxy-2-(hydroxymethyl)propan-2-yl)carbamate] | < 250 nM | – |
| O=C(NCc1ccc[nH]c1=O)C1CC(Cc2c(-c3ccc(F)cc3)[nH]c3c(F)cc(F)cc23)C1 (stereo not drawn) [Compound 313] | > 1000 nM | – |
| C[C@@H](O)CNC(=O)C1CC(Cc2c(-c3ccc(F)cc3)[nH]c3c(F)cc(F)cc23)C1 (stereo partly drawn) [Compound 307] | > 1000 nM | – |
| O=C(N[C@@H]1CCNC1=O)O[C@H]1C[C@H](c2c(-c3ccc(F)cc3)[nH]c3c(F)cc(F)cc32)C1 [Compound 359] | 250 to 1000 nM | – |
| CC1(C(=O)N[C@H]2CCNC2=O)CC(c2c(-c3ccc(F)cc3)[nH]c3c(F)cc(F)cc23)C1 (mixture of isomers) [Compound 284] | – | 250 to 1000 nM |
| CC(=O)NCCNC(=O)C1CC(Cc2c(-c3ccc(F)cc3)[nH]c3c(F)cc(F)cc23)C1 (stereo not drawn) [Compound 320] | > 1000 nM | – |
| O=C(NCc1cn(CC(F)(F)F)cn1)O[C@H]1C[C@H](c2c(-c3ccc(F)cc3)[nH]c3c(F)cc(F)cc32)C1 [Compound 386] | > 1000 nM | – |
| O=C(NCCn1cncn1)[C@H]1C[C@@H](c2c(-c3ccc(F)cc3)[nH]c3c(F)cc(F)cc32)C1 [Compound 264] | – | > 1000 nM |
| O=C([C@H]1C[C@H](c2c(-c3ccc(F)cc3)[nH]c3c(F)cc(F)cc32)C1)N1CCOC(CO)C1 (stereo partly drawn) [Compound 151] | – | > 1000 nM |
| CC(NC(=O)C1CC(Cc2c(-c3ccc(F)cc3)[nH]c3c(F)cc(F)cc23)C1)c1ccn(C)n1 (mixture of isomers) [Compound 312] | > 1000 nM | – |
| CC(C)C[C@@H](CO)NC(=O)C1CC(Cc2c(-c3ccc(F)cc3)[nH]c3c(F)cc(F)cc23)C1 (stereo partly drawn) [Compound 347] | > 1000 nM | – |
| O=C(NCC1CCCO1)C1CC(Cc2c(-c3ccc(F)cc3)[nH]c3c(F)cc(F)cc23)C1 (stereo not drawn) [Compound 321] | > 1000 nM | – |
| CC(C)(CO)NC(=O)O[C@H]1C[C@H](c2c(-c3ccc(F)cc3)[nH]c3c(F)cc(F)cc32)C1 [Compound 352] | 250 to 1000 nM | – |
| O=C(NCC(F)(F)F)[C@H]1C[C@@H](c2c(-c3ccc(F)cc3)[nH]c3c(F)cc(F)cc32)C1 [Compound 260] | – | 250 to 1000 nM |
| O=C(NC(CO)(CO)CO)[C@H]1C[C@H](c2c(-c3ccc(F)cc3)[nH]c3c(F)cc(F)cc32)C1 [Compound 226] | – | < 250 nM |
| O=C(NCCO)C1CC(Cc2c(-c3ccc(F)cc3)[nH]c3c(F)cc(F)cc23)C1 (stereo not drawn) [Compound 299, 3-[[5,7-difluoro-2-(4-fluorophenyl)-1H-indol-3-yl]methyl]-N-(2-hydroxyethyl)cyclobutane-1-carboxamide] | 250 to 1000 nM | – |
| O=C(NCC1(O)CCCC1)C1CC(Cc2c(-c3ccc(F)cc3)[nH]c3c(F)cc(F)cc23)C1 (stereo not drawn) [Compound 315] | > 1000 nM | – |
| Cc1cc(CNC(=O)C2CC(Cc3c(-c4ccc(F)cc4)[nH]c4c(F)cc(F)cc34)C2)nn1C (stereo not drawn) [Compound 340] | > 1000 nM | – |
| O=C1CN(C(=O)[C@H]2C[C@@H](c3c(-c4ccc(F)cc4)[nH]c4c(F)cc(F)cc43)C2)CCN1 [Compound 275] | – | > 1000 nM |
| O=C(N[C@H]1CCNC1=O)O[C@H]1C[C@H](c2c(-c3ccc(F)cc3)[nH]c3c(F)cc(F)cc32)C1 [Compound 371] | > 1000 nM | – |

Continued, values first:

| IC50 (Table 24, Compounds 287 to 465) | IC50 [1] | Structure (SMILES) |
| --- | --- | --- |
| > 1000 nM | – | O=C(NC[C@H]1C[C@H](c2c(-c3ccc(F)cc3)[nH]c3c(F)cc(F)cc32)C1)N1CCC[C@@H]1CO [Compound 405] |
| 250 to 1000 nM | – | NC(=O)CNC(=O)O[C@H]1C[C@H](c2c(-c3ccc(F)cc3)[nH]c3c(F)cc(F)cc32)C1 [Compound 355] |
| 250 to 1000 nM | – | CNC(=O)C(C)NCC1CC(c2c(-c3ccc(F)cc3)[nH]c3c(F)cc(F)cc23)C1 (mixture of isomers) [Compound 436] |
| < 250 nM | – | NC(=O)CNC[C@H]1C[C@H](c2c(-c3ccc(F)cc3)[nH]c3c(F)cc(F)cc32)C1 [Compound 445, 2-((((1r,3r)-3-(5,7-difluoro-2-(4-fluorophenyl)-1H-indol-3-yl)cyclobutyl)methyl)amino)acetamide] |
| > 1000 nM | – | O=C(NC[C@H]1C[C@H](c2c(-c3ccc(F)cc3)[nH]c3c(F)cc(F)cc32)C1)NC1(CO)CCOC1 (stereo partly drawn) [Compound 425] |
| 250 to 1000 nM | – | O=C(CNC[C@H]1C[C@H](c2c(-c3ccc(F)cc3)[nH]c3c(F)cc(F)cc32)C1)NC1CC1 [Compound 449] |
| – | > 1000 nM | O=C(NCC(O)CO)[C@H]1C[C@@H](c2c(-c3ccc(F)cc3)[nH]c3c(F)cc(F)cc32)C1 (stereo partly drawn) [Compound 244] |
| – | > 1000 nM | C[C@H](CO)NC(=O)[C@H]1C[C@@H](c2c(-c3ccc(F)cc3)[nH]c3c(F)cc(F)cc32)C1 [Compound 272] |
| – | > 1000 nM | O=C1NCC[C@H]1NC(=O)[C@H]1C[C@@H](c2c(-c3ccc(F)cc3)[nH]c3c(F)cc(F)cc32)C1 [Compound 236] |
| > 1000 nM | – | CC(CO)(CO)NC(=O)NC[C@H]1C[C@H](c2c(-c3ccc(F)cc3)[nH]c3c(F)cc(F)cc32)C1 [Compound 397] |
| – | > 1000 nM | CC[C@@H](CO)NC(=O)[C@H]1C[C@@H](c2c(-c3ccc(F)cc3)[nH]c3c(F)cc(F)cc32)C1 [Compound 257] |
| > 1000 nM | – | O=C(CC1CC(c2c(-c3ccc(F)cc3)[nH]c3c(F)cc(F)cc23)C1)NCCO (stereo not drawn) [Compound 459] |
| – | > 1000 nM | O=C(NCC1CC(F)(F)C1)[C@H]1C[C@@H](c2c(-c3ccc(F)cc3)[nH]c3c(F)cc(F)cc32)C1 [Compound 266] |
| > 1000 nM | – | NC(=O)CCNC1CC(c2c(-c3ccc(F)cc3)[nH]c3c(F)cc(F)cc23)C1 (stereo not drawn) [Compound 287, 3-[[3-[5,7-difluoro-2-(4-fluorophenyl)-1H-indol-3-yl]cyclobutyl]amino]propanamide] |
| > 1000 nM | – | C[C@@H](O)CNC(=O)N(C)CC1CC(c2c(-c3ccc(F)cc3)[nH]c3c(F)cc(F)cc23)C1 (stereo partly drawn) [Compound 429] |
| – | > 1000 nM | O=C(CNC(=O)[C@H]1C[C@H](c2c(-c3ccc(F)cc3)[nH]c3c(F)cc(F)cc32)C1)NCCO [Compound 231] |
| > 1000 nM | – | CC1(O)CC(NC(=O)O[C@H]2C[C@H](c3c(-c4ccc(F)cc4)[nH]c4c(F)cc(F)cc43)C2)C1 (stereo partly drawn) [Compound 361] |
| > 1000 nM | – | CO[C@H]1C[C@@H](NC(=O)O[C@H]2C[C@H](c3c(-c4ccc(F)cc4)[nH]c4c(F)cc(F)cc43)C2)C1 [Compound 390] |
| > 1000 nM | – | O=C(NC[C@H]1C[C@H](c2c(-c3ccc(F)cc3)[nH]c3c(F)cc(F)cc32)C1)N[C@H]1CC[C@H]1O [Compound 394] |
| > 1000 nM | – | C[C@@H](CO)NC(=O)CC1CC(c2c(-c3ccc(F)cc3)[nH]c3c(F)cc(F)cc23)C1 (stereo partly drawn) [Compound 458] |
